{"source": "patent US20090306403A1", "about": "“Production Process for Bicyclic Tetrahydropyrrole Compounds” (priority 2006, published 2009)", "origin": "cited, not measured here", "key": {"sigma (σ-2) site": {"biological_target": "sigma (σ-2) site (Homo sapiens, UniProt Q5BJF2)", "sequence (Q5BJF2 whole entry)": "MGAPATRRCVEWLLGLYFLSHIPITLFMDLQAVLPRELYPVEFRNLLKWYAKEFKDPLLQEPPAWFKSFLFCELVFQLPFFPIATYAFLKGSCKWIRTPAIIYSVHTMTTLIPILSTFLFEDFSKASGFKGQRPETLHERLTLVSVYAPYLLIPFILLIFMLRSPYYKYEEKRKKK", "settings": "background statement in words"}, "sigma 1 (σ-1) site": {"biological_target": "sigma 1 (σ-1) site (Homo sapiens, UniProt Q99720)", "sequence (Q99720 whole entry)": "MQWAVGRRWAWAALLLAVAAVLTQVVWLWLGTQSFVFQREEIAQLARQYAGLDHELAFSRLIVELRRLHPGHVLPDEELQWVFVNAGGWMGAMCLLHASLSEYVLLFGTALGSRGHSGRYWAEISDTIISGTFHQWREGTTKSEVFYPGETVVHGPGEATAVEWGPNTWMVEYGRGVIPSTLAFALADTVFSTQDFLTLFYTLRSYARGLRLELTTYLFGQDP", "settings": "background statement in words"}}}
{"substance": "SKF 10047", "values": [{"measurement": "affinity for the sigma (σ-2) site", "setting": "sigma (σ-2) site", "result": "micromolar affinity"}, {"measurement": "affinity for the sigma 1 (σ-1) site", "setting": "sigma 1 (σ-1) site", "result": "nanomolar affinity"}]}
